Tested on: mice
Assay: tail-flick test, analgesia (nociceptive response) after intravenous injection
Assay type: in vivo, mouse
Settings: 7.0 mg/kg loperamide, cut-off ten seconds = 100% MPE
Method: The preparations were applied intravenously to mice, at a dosage of 7.0 mg/kg loperamide. Based on an average body weight of a mouse of 20 g, the animals received an application amount of 200 μl of the above-mentioned preparation.
With the aid of this system, the analgesic effects shown in FIG. 1 were achieved after intravenous injection using the above-mentioned active agent loperamide. Analgesia (Nociceptive Response) was detected by the tail-flick test, wherein a hot beam of light is projected onto the tail of the mouse and the time that passes until the mouse flicks away its tail is measured. After ten seconds (=100% MPE) the experiment is discontinued so as not to cause injury to the mouse. Negative MPE values occur in those cases where following administration of the preparation, the mouse flicks away its tail earlier than before the treatment.
As a comparison, a loperamide solution 0.7 mg/ml in 2.6%-vol. ethanol was used.

CN(C)C(=O)C(CCN1CCC(O)(c2ccc(Cl)cc2)CC1)(c1ccccc1)c1ccccc1 [loperamide]
analgesic effect (maximal possible effect, MPE): no analgesic effect

Source: patent publication US20090304720A1, “Active Agent-Loaded Nanoparticles Based On Hydrophilic Proteins” (LTS Lohmann Therapie-Systeme AG, priority 2006, published 2009)
